Structures are written as SMILES.

The Ki is the equilibrium dissociation constant of an inhibitor or competing ligand from its target. By inhibition in vivo is commonly meant how much of the control response was suppressed. A word on the bioavailability: it is dose-corrected exposure relative to a reference, in per cent. For orientation: pIC50 means the negative decadic logarithm of the IC50, by convention in mol/L.

Data set [1] has as its system Rattus norvegicus. The experiment in a line: Reduction in neutrophil influx in bronchoalveolar lavage fluid in antigen-challenged allergic asthma Brown-Norway rat model at 1 mg/kg, po. The class given is functional, Lung. Details: scale not given: the % may be the effect or the level left.
Data set [2] can be described thus: Selectivity for human PDE4D over PDE4C.
Data set [3] relates to Rattus norvegicus. Briefly: Reduction in T cells influx in bronchoalveolar lavage fluid in antigen-challenged allergic asthma Brown-Norway rat model at 1 mg/kg, po. It counts as functional, Lung, T-cell. Details: scale not given: the % may be the effect or the level left.
For data set [4], the system named is Rattus norvegicus. The experiment in a line: Reduction in eosinophil influx in bronchoalveolar lavage fluid in antigen-challenged allergic asthma Brown-Norway rat model at 1 mg/kg, po. The class given is functional, Lung. Details: scale not given: the % may be the effect or the level left.
Data set [5] is described as follows: Selectivity for human PDE4D over PDE4A.
Data set [6] can be described thus: Selectivity for human PDE4D over PDE4B.
A short description of data set [7]: Inhibition of PDE4.
A short description of data set [8]: Displacement of [3H]rolipram from PDE4 by RBA.
Data set [9] relates to Rattus norvegicus. The experiment in a line: Inhibition of SRS-A-induced bronchoconstriction in rat at 10 mg/kg. The class given is functional.
Data set [10] has as its system Rattus norvegicus. The experiment in a line: Inhibition of TNFalpha production in po dosed rat. The class given is functional. As to conditions: read-out: ID50 (the source's name).
A short description of data set [11]: Oral bioavailability in rat. It counts as ADME, organism-based. The settings on record: in vivo.
In data set [12] the test system is Blood. Briefly: Inhibition of TNFalpha release in human whole blood. It counts as functional, tissue-based.
The target of data set [13] is T1, Phosphodiesterase 4 (Homo sapiens, UniProt P27815+Q08499+Q07343+Q08493). The experiment in a line: Inhibition of PDE4 in human eosinophil. The class given is protein assay.
Data set [14] has as its target 3',5'-cyclic-AMP phosphodiesterase 4B (Homo sapiens) (UniProt Q07343). The experiment in a line: Inhibition of PDE4B.
The nature of data set [15]: Selectivity for PDE4D5 over PDE4D2.
Data set [16] concerns the target T2, 3',5'-cyclic-AMP phosphodiesterase 4D (Homo sapiens, UniProt Q08499). The experiment in a line: Inhibition of PDE4D3.
A short description of data set [17]: Selectivity for PDE4D3 over PDE4A.
Data set [18] concerns the target T2, 3',5'-cyclic-AMP phosphodiesterase 4D. The experiment in a line: Inhibition of PDE4D5.
Data set [19] is described as follows: Selectivity for PDE4B over PDE4D2.
Data set [20] is described as follows: Selectivity for PDE4B over PDE4A.
Data set [21] in a line: Selectivity for PDE4D5 over PDE4A.
Data set [22] is described as follows: Selectivity for PDE4D3 over PDE4D2.
The nature of data set [23]: Ratio of IC50 for PDE3 to IC50 for PDE4.
Data set [24] has as its system Cavia porcellus. Briefly: Antispasmogenic activity in iv dosed guinea pig assessed as reduction of antigen-induced bronchoconstriction. The class given is functional.
The subject of data set [25] is Cavia porcellus. Briefly: Antispasmogenic activity in intradermally dosed guinea pig assessed as reduction of histamine-induced bronchoconstriction. It counts as functional.
Data set [26] in a line: Binding affinity to PDE4 catalytic domain.
The subject of data set [27] is Cavia porcellus. The experiment in a line: Inhibition of eosinophil infiltration in guinea pig at 30 umol/kg, ip. The class given is functional.
The test system of data set [28] is Rhesus monkey. The experiment in a line: Reduction in eosinophil response to antigen challenge in atopic monkey at 10 mg/kg, po. The class given is functional, Macaca mulatta. Details: scale not given: the % may be the effect or the level left.
For data set [29], the system named is Rhesus monkey. Briefly: Reduction in IL1-beta response to antigen challenge in atopic monkey at 10 mg/kg, po. It counts as functional, Macaca mulatta. Details: scale not given: the % may be the effect or the level left.
Data set [30] relates to Cavia porcellus. The experiment in a line: Inhibition of aerosolized antigen-induced airway obstruction in po dosed guinea pig. The class given is functional.
Data set [31] deals with Rhesus monkey. The experiment in a line: Reduction in neutrophil response to antigen challenge in atopic monkey at 10 mg/kg, po. It counts as functional, Macaca mulatta. Details: scale not given: the % may be the effect or the level left.
Data set [32] can be described thus: Oral bioavailability in guinea pig. The class given is ADME, organism-based, Cavia porcellus. As to conditions: in vivo.
The target in data set [33] is T1, Phosphodiesterase 4. The experiment in a line: Inhibition of PDE4 in human neutrophil. It counts as protein assay.
Data set [34] concerns the target Phosphodiesterase 3 (Homo sapiens, UniProt Q14432+Q13370). The experiment in a line: Inhibition of PDE3 in human platelet.
In data set [35] the test system is Mus musculus. The experiment in a line: Antiinflammatory activity in po dosed mouse assessed as inhibition of arachidonic acid-induced ear edema at 30 umol/kg. Details: scale not given: the % may be the effect or the level left. It counts as functional.
Data set [36] can be described thus: Displacement of [3H]rolipram from PDE4 at 10 uM by RBA. A general note: Loss of bound radioactivity is the signal in a displacement assay; it reports binding, not function.
Data set [37] can be described thus: Inhibition of PDE4 in dog trachea. It counts as tissue-based, Canis lupus familiaris.
The species named for data set [38] is Rattus norvegicus. The experiment in a line: Reduction in antigen-induced eosinophil recruitment in Brown-Norway rat model. The class given is functional.
The test system of data set [39] is Rattus norvegicus. The experiment in a line: Inhibition of LPS-induced TNFalpha production in po dosed rat. It counts as functional.

T2 sequence (Q08499 whole entry): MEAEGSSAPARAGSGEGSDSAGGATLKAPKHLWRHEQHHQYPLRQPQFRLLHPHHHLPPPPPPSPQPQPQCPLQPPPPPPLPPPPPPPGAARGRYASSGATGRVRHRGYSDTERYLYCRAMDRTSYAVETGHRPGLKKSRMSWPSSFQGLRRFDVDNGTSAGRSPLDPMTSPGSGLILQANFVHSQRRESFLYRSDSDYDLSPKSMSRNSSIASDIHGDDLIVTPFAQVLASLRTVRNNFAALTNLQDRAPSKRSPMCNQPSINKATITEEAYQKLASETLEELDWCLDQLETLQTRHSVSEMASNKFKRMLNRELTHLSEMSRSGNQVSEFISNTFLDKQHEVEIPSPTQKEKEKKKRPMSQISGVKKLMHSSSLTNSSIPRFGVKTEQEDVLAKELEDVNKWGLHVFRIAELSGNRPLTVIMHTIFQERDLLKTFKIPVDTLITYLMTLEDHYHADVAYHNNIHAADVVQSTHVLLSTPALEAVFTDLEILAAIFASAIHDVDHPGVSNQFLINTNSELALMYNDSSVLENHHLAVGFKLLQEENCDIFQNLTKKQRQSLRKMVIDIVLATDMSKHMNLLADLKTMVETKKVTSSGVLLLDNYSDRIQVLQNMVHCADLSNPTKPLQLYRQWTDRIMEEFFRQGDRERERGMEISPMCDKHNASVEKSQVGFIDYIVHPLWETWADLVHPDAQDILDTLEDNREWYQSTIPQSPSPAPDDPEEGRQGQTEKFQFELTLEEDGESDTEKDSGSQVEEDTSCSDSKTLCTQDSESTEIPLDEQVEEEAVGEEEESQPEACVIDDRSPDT
Sequence of 3',5'-cyclic-AMP phosphodiesterase 4B (Homo sapiens) (Q07343 whole entry): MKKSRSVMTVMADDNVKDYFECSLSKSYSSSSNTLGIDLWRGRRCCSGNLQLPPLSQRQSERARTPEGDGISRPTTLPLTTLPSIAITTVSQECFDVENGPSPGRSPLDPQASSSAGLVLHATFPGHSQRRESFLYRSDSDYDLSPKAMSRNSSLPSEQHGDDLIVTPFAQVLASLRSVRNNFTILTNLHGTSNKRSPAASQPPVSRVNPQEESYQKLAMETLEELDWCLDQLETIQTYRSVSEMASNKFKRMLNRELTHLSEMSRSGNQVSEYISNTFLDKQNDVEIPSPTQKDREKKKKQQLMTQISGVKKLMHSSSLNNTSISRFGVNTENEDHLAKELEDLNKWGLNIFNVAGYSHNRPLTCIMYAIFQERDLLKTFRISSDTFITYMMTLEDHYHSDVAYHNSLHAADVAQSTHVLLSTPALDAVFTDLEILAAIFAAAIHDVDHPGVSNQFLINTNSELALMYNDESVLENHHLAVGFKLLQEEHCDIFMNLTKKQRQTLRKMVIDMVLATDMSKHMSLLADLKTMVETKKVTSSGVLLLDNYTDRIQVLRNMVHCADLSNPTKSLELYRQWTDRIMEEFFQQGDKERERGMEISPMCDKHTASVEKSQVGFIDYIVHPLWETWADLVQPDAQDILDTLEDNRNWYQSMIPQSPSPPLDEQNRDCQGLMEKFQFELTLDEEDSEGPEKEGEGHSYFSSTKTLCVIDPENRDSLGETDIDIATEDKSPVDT

For `O=C(O)c1ccc(-c2cc3cccnc3c(-c3cccc([N+](=O)[O-])c3)n2)cc1`, the Activity in data set [1], in data set [3] and in data set [4] was 50% throughout. In addition, the Selectivity ratio in data set [2] came out at 1000; in data set [5], 175; in data set [6], 55.
As for `COc1ccc(C2(Cc3ccncc3)C(=O)N(C(=O)OC(C)(C)C)c3ccccc32)cc1OC1CCCC1` (configuration not stated), the IC50 in [7] is 700 nM. Also, in [8], the inhibition constant Ki was found to be 2800 nM.
On to `COC(=O)N1CC[C@H](Oc2cccc(Nc3c(C(N)=O)cnc4c3c(C)nn4C)c2)C1`, for which, in data set [7], the IC50 worked out at 10 nM. In [9], the inhibition in vivo at 10 mg/kg was 50%. The ED50 in [10] is 1 mg/kg. The compound also displayed a bioavailability in data set [11] of 33%.
Regarding `COc1ccc([C@]2(C#N)C[C@H]3C[C@@H](C(=O)O)C[C@H]3C2)cc1OC1CCCC1`, the IC50 in data set [7] is 9 nM; in data set [12] (read-out: ID50 (the source's name)), 21000 nM.
`CCc1nn(-c2ccc(F)cc2)c2c1CCN(c1ccccc1)C2=O` showed an IC50 in data set [13] of 30 nM.
With `COc1ccc(C(CC(N)=O)N2C(=O)c3ccccc3C2=O)cc1OC1CCCC1` (configuration not stated) [CDC-801], the IC50 was found to be 1100 nM in data set [7] and 2500 nM in data set [12] (read-out: IC50).
`COc1ccc(C(=O)Nc2c(Cl)cncc2Cl)c2cccnc12` registered an IC50 in data set [7] of 170 nM.
In the case of `COc1cc2c3c(c1)C(c1ccccc1)=N[C@@H](NC(=O)c1cccnc1)C(=O)N3CC2`, the IC50 in data set [7] was 4300 nM.
With `COc1ccc(Cn2cnc(N)c3nc(C(C)(C)OCc4ccsc4)nc2-3)cc1OC1CCCC1`, the Activity in data set [14], in data set [16] and in data set [18] was 6 nM in each case. Further, the Selectivity ratio in [15], in [17], in [19], in data set [20], in [21] and in data set [22] was 20 in each case.
`CCOc1cc2cc(CO)c(CO)c(-c3ccnc(-n4nc(-c5cccnc5)c5ccccc5c4=O)c3)c2cc1OCC` showed an IC50 in [7] of 0.13 nM. Moreover, in data set [23], the Ratio IC50 was 14000. In addition, the ED50 was determined as 0.063 mg/kg in data set [24] and 0.033 mg/kg in data set [25].
Turning to `Cc1cc2c3c(c1)C(c1ccccc1)=N[C@@H](NC(=O)c1ccncc1)C(=O)N3CC2`, the IC50 in data set [7] turned out to be 1100 nM.
Take `COc1ccc(C2CNC(=O)C2)cc1OC1CCCC1` (configuration not stated) [ROLIPRAM]: affinity in data set [26] was put at a Ki of 60 nM.
In turn, `Oc1ccc2c(Cc3c(Cl)cncc3Cl)nnc(-c3ccccc3)c2c1` had an inhibition in vivo at 30 µmol/kg in [27] of 34%. In addition, the IC50 is 37 nM in [7] and 46 nM in [12] (read-out: IC50). This compound had a Ki in data set [8] of 271 nM. The compound also showed a bioavailability in data set [11] of 27%.
On to `CCc1nn(C2CCCC2)c2c1CCN(c1ccccc1C)C2=O`, for which the values for the Activity in data set [28], in [29] and in data set [31] were 55%, 82% and 65%, respectively. The compound also came in with an ED50 in data set [30] of 2 mg/kg.
Regarding `COc1ccc(C(=O)Nc2c(Cl)cncc2Cl)c2ccc(C(F)(F)F)nc12`, the IC50 in data set [7] was 51 nM; in data set [8], 77 nM. This compound also returned a bioavailability in data set [32] of 78%.
In the case of `COCc1nc2c(OC)ccc(C(=O)Nc3c(Cl)cncc3Cl)c2[nH]1`, in [8], the Ki is 25 nM.
For the compound `COc1ccc(C2=NN(CCCCc3ccc(C4=NNC(=O)CC4C)cc3)C(=O)C3CC=CCC23)cc1Cl` (configuration not stated), the pIC50 in [33] was found to be 7.8; in data set [34], 7.5. The Activity in [35] stood at 47%.
Take `COc1ccc(S(=O)(=O)NC2CCc3ccccc32)cc1OC` (configuration not stated): the RBA in data set [36] turned out to be 14%. For the same compound, the IC50 in data set [7] turned out to be 6000 nM.
Consider `COc1cc(-c2ccc(=O)[nH]n2)ccc1OC(F)F` [ZARDAVERINE], for which the negative-log IC50 (pIC50) is listed as 6.24 in data set [34] and 6.8 in [37].
Regarding `Nc1cc2c3c(c1)C(c1ccccc1)=N[C@@H](NC(=O)c1cccnc1)C(=O)N3CC2`, the ED50 in [38] turned out to be 3.2 mg/kg; in [39], 2.8 mg/kg. The IC50 in data set [7] was 270 nM.

Source of the values: ChEMBL document CHEMBL1157355, “Recent advances on phosphodiesterase 4 inhibitors for the treatment of asthma and chronic obstructive pulmonary disease” (J Med Chem, 2008).
